Patent US7560443B2, “Mixtures of fructose, sucrose and lactose as a low-calorie bulk sweetener with reduced glycemic index” (Vivalac, Inc. A Maryland Corp., priority 2002, dated 2009)
Read-outs that look alike come from different tables or passages of the source.

Tests used:
[1] = system: plasma glucose; settings: glucose = 100, cited from earlier work
[2] = system: blood glucose; settings: diabetic volunteers after normal insulin or oral agents, vs glucose (GI=100); cited from earlier work
[3] = system: plasma glucose; settings: untreated diabetics, Gannon et al; cited from earlier work
[4] = target: human sucrase (Homo sapiens, UniProt P14410); settings: in vitro; cited from earlier work
[5] = system: maltase; settings: in vitro; cited from earlier work
[6] = target: human lactase (Homo sapiens, UniProt P09848); settings: in vitro; cited from earlier work
[7] = target: rabbit sucrase (Oryctolagus cuniculus, UniProt P07768); settings: in vitro; cited from earlier work
[8] = system: rabbit maltase; settings: in vitro; cited from earlier work
[9] = system: human small intestine; settings: cited from earlier work
[10] = system: rats; settings: cited from earlier work
[11] = system: rats; settings: cited from earlier work; for body fat lowering vs controls: pair-fed rats
[12] = system: plasma glucose; assay: OTT, aqueous sugar solutions (50 g in 200 g water), Subject #1; format: in vivo, human; settings: Subject #1, N=3
Method: The test subject (Subject #1) was a person in good health, with a body mass index (BMI) equal to 28.6 kg/m^2. The subject was required to exercise moderately at least 30 minutes each day before testing, sleep at least 7 hours the previous night, and fast for no less than 12 hours prior to oral tolerance testing (OTT) early the next morning. Water was restricted 1.5 hours prior to testing, and only small sips of water were allowed infrequently during OTT. The test article, described below, was ingested as quickly as possible after the time 0 blood sample was obtained. Subsequent blood samples were taken at 30, 60, 90, 120, 150, and 180 minutes, and plasma glucose measurements were recorded in units of mg/dL immediately each time using a hand-held glucometer (At•Last model, Amira Medical, Scotts Valley, Calif. 95066). The subject abstained from food and remained sedentary during the 3-hour test. Clinical observations were noted and recorded continuously.
Test articles were aqueous solutions (in 200 g water) of 50 g of total carbohydrates, which were prepared early in the morning before the test. All of the same protocol criteria were applied for the test, as described in Example 1 above, except that times for blood samples were 0, 30, 45, 60, 90, 120, and 180 minutes. The test subjects were Subject #1, described above, and Subject #2, a healthy person (BMI=27.7 kg/m^2). […]

[13] = system: plasma glucose; assay: OTT, aqueous solutions (25 g in 100 g water), type 2 diabetic subject (DM2); format: in vivo, human
Method: Test articles were aqueous solutions (in 200 g water) of 50 g of total carbohydrates, which were prepared early in the morning before the test. All of the same protocol criteria were applied for the test, as described in Example 1 above, except that times for blood samples were 0, 30, 45, 60, 90, 120, and 180 minutes. The test subjects were Subject #1, described above, and Subject #2, a healthy person (BMI=27.7 kg/m^2). See FIGS. 3 and 2, respectively, for results of their OTT's.
Calculation of estimated caloric value (ECV) demands some explanation here, as the calculation requires acceptance of some reasonable assumptions: • GI values for lactose monohydrate, fructose, sucrose and oat starch are 46, 23, 64, and 100, respectively. • Caloric values for lactose monohydrate, fructose, sucrose and oat starch are 3.8, 3.7, 3.9, and 3.7 kcal/g, respectively. • The order for complete active absorption of sugar mixtures from the small intestine to the bloodstream is fructose>starch (as maltose and α-dextrins)>sucrose>lactose. • Passive absorption of unhydrolyzed disaccharides is assumed to be zero for these calculations. • Disaccharides not actively absorbed pass to the colon, where they are fully degraded by microflora. • 78% of the disaccharides form short chain fatty acids (SCFA's), which are fully absorbed and used by the body with 50%×0.85=42.5% energy efficiency vs glucose (Livesey, Int J Food Sci Nutr, 44, 221-241, 1993). • 22% of the disaccharides are converted to biomass, which is calorically unavailable to the host (Weber et al, J Lab Clin Med, 110, 259-263, 1987). • NB—Starch (not part of the sweetener) which passes to the colon and is degraded microbially subtracts energy value from the sweetener, a component of which (lactose) caused it to pass to the colon.
The type 2 diabetic subject (DM2) was a person (BMI=32.8 kg/m^2), who was trying to control their diabetes without insulin or oral medications. Their daily drug regimen included Premarin®, Prempro®, Xenical®, and Lipitor®, all taken after OTT was completed each day. […]

[14] = pair-feeding, lactose 30% of diet (Février 1969)
[15] = weanling male rats, 12% lactose, six weeks (Ali and Evans 1971)

Chain of human lactase (P09848 869-1927): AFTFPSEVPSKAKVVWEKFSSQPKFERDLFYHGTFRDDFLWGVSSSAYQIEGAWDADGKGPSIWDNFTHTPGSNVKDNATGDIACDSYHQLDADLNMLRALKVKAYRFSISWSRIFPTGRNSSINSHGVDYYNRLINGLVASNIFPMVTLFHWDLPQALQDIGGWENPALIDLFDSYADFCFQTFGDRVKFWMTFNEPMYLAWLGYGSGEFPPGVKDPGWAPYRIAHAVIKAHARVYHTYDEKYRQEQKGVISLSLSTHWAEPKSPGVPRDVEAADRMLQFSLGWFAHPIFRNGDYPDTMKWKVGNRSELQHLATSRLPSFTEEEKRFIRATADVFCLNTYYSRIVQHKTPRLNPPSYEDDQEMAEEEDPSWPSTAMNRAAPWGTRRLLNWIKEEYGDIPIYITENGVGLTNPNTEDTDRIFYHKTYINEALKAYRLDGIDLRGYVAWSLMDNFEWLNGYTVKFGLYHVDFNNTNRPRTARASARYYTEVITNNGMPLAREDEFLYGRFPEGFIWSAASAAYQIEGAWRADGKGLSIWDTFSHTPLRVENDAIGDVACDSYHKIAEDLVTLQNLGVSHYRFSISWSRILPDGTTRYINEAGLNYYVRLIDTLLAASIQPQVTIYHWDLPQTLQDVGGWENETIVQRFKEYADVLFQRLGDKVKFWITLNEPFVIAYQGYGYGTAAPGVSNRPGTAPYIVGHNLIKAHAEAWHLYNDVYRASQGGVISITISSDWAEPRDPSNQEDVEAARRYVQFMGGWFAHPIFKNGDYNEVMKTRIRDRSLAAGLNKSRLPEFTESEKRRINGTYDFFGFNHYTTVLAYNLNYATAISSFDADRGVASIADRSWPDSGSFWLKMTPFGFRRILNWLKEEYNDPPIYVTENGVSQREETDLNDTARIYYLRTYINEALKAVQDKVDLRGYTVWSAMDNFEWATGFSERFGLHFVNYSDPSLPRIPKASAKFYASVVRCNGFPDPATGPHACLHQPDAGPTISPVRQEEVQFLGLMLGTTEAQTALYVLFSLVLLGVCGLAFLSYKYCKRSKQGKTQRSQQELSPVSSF
Chain of human sucrase (P14410 whole entry): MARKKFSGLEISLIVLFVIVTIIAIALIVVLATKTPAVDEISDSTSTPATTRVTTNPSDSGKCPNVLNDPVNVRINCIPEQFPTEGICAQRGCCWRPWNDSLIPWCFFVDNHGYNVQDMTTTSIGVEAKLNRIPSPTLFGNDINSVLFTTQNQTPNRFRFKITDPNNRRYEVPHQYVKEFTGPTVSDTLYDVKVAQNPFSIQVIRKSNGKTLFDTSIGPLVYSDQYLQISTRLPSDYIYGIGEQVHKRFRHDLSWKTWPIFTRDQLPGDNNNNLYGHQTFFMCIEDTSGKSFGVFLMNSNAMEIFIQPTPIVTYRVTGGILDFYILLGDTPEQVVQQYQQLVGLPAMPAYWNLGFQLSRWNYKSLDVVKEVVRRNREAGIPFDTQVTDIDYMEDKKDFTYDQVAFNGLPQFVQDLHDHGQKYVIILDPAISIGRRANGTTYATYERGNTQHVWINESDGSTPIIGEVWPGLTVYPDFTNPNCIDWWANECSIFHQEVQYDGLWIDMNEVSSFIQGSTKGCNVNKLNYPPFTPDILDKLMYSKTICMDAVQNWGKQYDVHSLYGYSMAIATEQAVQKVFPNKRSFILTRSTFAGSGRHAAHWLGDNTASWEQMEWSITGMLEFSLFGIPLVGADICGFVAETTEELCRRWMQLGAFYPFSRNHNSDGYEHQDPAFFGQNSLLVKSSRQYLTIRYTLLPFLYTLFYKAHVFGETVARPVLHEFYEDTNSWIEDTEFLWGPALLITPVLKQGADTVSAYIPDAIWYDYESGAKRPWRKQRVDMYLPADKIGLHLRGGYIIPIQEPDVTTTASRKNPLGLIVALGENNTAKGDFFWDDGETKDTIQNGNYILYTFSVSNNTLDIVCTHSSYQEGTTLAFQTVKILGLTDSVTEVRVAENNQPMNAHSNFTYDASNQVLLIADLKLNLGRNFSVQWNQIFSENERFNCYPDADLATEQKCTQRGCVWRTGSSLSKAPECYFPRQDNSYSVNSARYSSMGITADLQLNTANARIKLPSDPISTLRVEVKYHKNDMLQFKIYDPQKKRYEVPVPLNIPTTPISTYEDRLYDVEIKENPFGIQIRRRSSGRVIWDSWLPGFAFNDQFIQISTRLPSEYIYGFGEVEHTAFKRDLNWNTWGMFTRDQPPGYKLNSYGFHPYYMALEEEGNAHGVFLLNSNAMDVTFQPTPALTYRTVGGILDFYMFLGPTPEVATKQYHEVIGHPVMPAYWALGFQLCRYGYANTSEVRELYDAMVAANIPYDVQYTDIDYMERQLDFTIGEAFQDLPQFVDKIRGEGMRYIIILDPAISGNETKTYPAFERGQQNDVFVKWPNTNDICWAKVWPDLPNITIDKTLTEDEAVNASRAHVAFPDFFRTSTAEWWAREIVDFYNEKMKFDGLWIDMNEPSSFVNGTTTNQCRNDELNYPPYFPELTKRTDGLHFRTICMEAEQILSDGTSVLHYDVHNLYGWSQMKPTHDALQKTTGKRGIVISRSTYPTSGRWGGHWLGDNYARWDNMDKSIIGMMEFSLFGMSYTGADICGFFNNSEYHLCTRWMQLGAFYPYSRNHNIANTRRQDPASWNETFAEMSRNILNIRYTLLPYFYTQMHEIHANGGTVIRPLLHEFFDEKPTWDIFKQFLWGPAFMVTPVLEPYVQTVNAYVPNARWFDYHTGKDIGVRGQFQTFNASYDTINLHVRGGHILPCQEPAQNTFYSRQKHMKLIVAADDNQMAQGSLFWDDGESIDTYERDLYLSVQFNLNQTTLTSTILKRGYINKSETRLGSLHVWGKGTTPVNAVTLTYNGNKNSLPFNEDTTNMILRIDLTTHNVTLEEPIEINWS
Chain of rabbit sucrase (P07768 whole entry): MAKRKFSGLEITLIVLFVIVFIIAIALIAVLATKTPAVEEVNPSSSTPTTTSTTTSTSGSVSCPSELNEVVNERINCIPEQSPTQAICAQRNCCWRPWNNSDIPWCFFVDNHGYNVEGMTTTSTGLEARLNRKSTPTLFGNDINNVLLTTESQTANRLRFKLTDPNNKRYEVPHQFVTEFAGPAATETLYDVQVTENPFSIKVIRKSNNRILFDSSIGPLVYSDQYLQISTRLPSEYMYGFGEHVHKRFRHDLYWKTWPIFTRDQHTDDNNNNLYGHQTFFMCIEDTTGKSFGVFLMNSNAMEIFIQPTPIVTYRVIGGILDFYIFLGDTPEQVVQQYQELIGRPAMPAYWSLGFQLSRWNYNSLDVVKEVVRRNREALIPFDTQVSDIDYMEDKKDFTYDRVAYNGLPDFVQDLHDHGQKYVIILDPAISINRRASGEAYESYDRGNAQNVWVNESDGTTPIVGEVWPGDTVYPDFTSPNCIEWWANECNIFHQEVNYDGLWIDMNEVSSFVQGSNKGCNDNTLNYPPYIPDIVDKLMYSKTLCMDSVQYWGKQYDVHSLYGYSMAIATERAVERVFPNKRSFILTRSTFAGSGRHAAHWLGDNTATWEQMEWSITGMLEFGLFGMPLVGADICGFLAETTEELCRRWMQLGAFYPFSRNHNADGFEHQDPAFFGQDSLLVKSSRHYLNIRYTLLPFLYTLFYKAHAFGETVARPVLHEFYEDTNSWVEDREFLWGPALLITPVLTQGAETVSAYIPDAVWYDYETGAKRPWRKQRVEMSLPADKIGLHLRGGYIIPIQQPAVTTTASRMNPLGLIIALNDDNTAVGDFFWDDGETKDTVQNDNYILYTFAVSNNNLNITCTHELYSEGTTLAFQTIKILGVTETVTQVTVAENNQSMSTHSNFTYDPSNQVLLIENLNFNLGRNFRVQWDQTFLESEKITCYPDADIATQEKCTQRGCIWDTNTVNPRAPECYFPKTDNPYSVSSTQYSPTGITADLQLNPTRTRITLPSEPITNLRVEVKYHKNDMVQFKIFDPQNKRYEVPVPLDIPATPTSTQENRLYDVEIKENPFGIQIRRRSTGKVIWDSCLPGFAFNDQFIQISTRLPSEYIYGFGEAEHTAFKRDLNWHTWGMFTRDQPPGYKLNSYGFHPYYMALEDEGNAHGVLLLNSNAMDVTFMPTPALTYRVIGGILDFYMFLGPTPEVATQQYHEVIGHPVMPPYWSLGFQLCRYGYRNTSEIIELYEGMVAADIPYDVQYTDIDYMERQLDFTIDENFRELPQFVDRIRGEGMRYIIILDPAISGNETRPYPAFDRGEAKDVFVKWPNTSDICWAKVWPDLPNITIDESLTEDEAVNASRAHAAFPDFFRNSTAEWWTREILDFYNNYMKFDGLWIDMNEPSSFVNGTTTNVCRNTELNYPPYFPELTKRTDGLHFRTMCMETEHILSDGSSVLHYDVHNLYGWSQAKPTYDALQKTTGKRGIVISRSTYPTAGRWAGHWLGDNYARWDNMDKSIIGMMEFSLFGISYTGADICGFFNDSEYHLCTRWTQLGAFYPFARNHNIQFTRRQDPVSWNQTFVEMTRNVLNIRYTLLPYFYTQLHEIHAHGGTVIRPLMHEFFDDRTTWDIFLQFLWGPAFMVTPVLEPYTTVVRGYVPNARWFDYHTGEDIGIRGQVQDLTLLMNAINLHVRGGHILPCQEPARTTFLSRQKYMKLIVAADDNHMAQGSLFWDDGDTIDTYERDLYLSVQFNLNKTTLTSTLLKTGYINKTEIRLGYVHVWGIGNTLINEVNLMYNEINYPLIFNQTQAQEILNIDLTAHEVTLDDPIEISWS

## O=C(CO)[C@@H](O)[C@H](O)[C@H](O)CO [fructose]
[1]
  glycemic index (GI): 23
[2]
  glycemic index (GI): 24
[3]
  GI values: 6
[4]
  inhibition of sucrose hydrolysis by human sucrase: inhibit
[5]
  inhibition of maltose hydrolysis by maltase: no inhibiting effect
[6]
  inhibition of lactose hydrolysis by human lactase: competitively inhibit

## O=C[C@H](O)[C@@H](O)[C@@H](O)[C@H](O)CO [galactose]
[4]
  inhibition of sucrose hydrolysis by human sucrase: no inhibition
[7]
  inhibition of rabbit sucrase: no inhibition
[8]
  inhibition of rabbit maltase: no inhibition
[5]
  inhibition of maltose hydrolysis by maltase: no inhibiting effect
[6]
  inhibition of lactose hydrolysis by human lactase: competitively inhibit
[9]
  absorption rate relative to fructose: ~1.2 times as fast as fructose

## OC[C@H]1O[C@@H](O[C@H]2[C@H](O)[C@@H](O)C(O)O[C@@H]2CO)[C@H](O)[C@@H](O)[C@H]1O (some centres unmarked) [lactose]
[1]
  glycemic index (GI): 46
[2]
  glycemic index (GI): 48
[3]
  GI values: 32
[10]; bioassay based on plasma ketones
  relative availability compared to glucose: 0.59
[10]; bioassay based on weight gain
  relative availability compared to glucose: 0.57
[10]
  metabolizable energy value: 2.1 kcal/g
[11]; ad libitum feeding, lactose 30% of diet (Février 1969)
  reduction of fat content: 20%
[11]; ad libitum feeding, lactose 30% of diet vs starch control (Février 1969)
  reduction of growth rate: 37%
[11]; equalized-growth-feeding, lactose 30% of diet (Février 1969)
  reduction of fat content: 12%
[11]; lactose 30% of diet (Whittier et al 1935)
  body fat lowering vs controls: 38%
[11]; lactose 50% of diet (Baker et al 1967)
  body fat lowering vs controls: 48%
[11]; lactose 52% of diet (Tomarelli et al 1960)
  body fat lowering vs controls: 40%
[11]; [14]
  reduction of fat content: 32%
  reduction of growth rate: 23%
[11]; [15]
  body fat reduction: 30%
  body moisture increase: 11%

## OC[C@H]1O[C@H](O[C@H]2[C@H](O)[C@@H](O)[C@H](O)O[C@@H]2CO)[C@H](O)[C@@H](O)[C@@H]1O [maltose]
[6]
  inhibition of lactose hydrolysis by human lactase: no inhibiting effect

## OC[C@H]1O[C@@](CO)(O[C@H]2O[C@H](CO)[C@@H](O)[C@H](O)[C@H]2O)[C@@H](O)[C@@H]1O [sucrose]
[12]
  AUC: 2935 mg·min/dL
[13]
  plasma glucose level relative to 200 mg/dL: broke above 200 mg/dL
  time of plasma glucose peak: 45 min
[13]; 25 g in 100 g water, N=2
  AUC: 6184 mg·min/dL
[1]
  glycemic index (GI): 64
[1]; listed as SU
  glycemic index (GI): 64
[2]
  glycemic index (GI): 63
[3]
  GI values: 43
[6]
  inhibition of lactose hydrolysis by human lactase: no inhibiting effect
